Target: T1, human FXR (Homo sapiens, UniProt Q96RI1)
T1 construct: expressed in transfected cells; host or cells: HEK293 cells stably carrying a 5xGal4 response element-luciferase reporter, transiently transfected with pcDNA3.1-Gal4-FXR
T1 sequence (Q96RI1 262-486 limits assumed): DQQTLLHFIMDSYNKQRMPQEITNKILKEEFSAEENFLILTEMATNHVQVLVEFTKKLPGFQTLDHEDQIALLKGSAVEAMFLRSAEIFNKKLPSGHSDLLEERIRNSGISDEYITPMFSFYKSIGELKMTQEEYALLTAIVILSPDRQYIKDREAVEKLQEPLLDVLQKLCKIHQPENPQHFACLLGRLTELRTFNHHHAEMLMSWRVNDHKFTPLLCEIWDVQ
Assay: transient human FXR/Gal4-luciferase reporter assay
Type: cell-based
Settings: Gal4-hFXR fusion construct, luciferase reporter in HEK293 cells; overnight incubation; response as percentage of 8 μM GW-4064 control
Method in brief: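 HEK293 cells stably carrying a 5×Gal4-response-element firefly luciferase reporter were transiently transfected with a Gal4 DBD-human FXR LBD fusion, then treated overnight with compounds at 37 °C. Steady-Glo luminescence, minus DMSO background, was expressed as percent of the response to 8 μM GW-4064.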

SMILES	EC50 [nM]
CCNC(=O)c1cc(N(CC23CCC(c4nc(C(C)(C)C)no4)(CC2)CC3)C(=O)C23CC(F)(C2)C3)ccc1F [Example 122, N-((4-(3-(tert-butyl)-1,2,4-oxadiazol-5-yl)bicyclo[2.2.2]octan-1-yl)methyl)-N-(3-(ethylcarbamoyl)-4-fluorophenyl)-3-fluorobicyclo[1.1.1]pentane-1-carboxamide]	123
CC(C)Oc1cccc(N(CC23CCC(c4nc(C(C)(C)C)no4)(CC2)CC3)C(=O)C23CC(F)(C2)C3)c1 [Example 124, N-((4-(3-(tert-butyl)-1,2,4-oxadiazol-5-yl)bicyclo[2.2.2]octan-1-yl)methyl)-3-fluoro-N-(3-isopropoxyphenyl)bicyclo[1.1.1]pentane-1-carboxamide]	2000
CC(C)(C)c1noc(C23CCC(CN(C(=O)C45CC(F)(C4)C5)c4ccc(F)c(C(C)(C)O)c4)(CC2)CC3)n1 [Example 128, N-((4-(3-(tert-butyl)-1,2,4-oxadiazol-5-yl)bicyclo[2.2.2]octan-1-yl)methyl)-3-fluoro-N-(4-fluoro-3-(2-hydroxypropan-2-yl)phenyl)bicyclo[1.1.1]pentane-1-carboxamide]	4000
CC(C)(C)c1noc(C23CCC(CN(C(=O)C45CC(F)(C4)C5)c4cccc(Br)c4)(CC2)C3)n1 [Example 132, N-(3-bromophenyl)-N-((4-(3-(tert-butyl)-1,2,4-oxadiazol-5-yl)bicyclo[2.2.1]heptan-1-yl)methyl)-3-fluorobicyclo[1.1.1]pentane-1-carboxamide]	498
CC(F)(F)c1nc(C23CCC(CN(C(=O)C45CC(F)(C4)C5)c4cc(F)cc(C#N)c4)(CC2)CC3)no1 [Example 135, N-(3-cyano-5-fluorophenyl)-N-((4-(5-(1,1-difluoroethyl)-1,2,4-oxadiazol-3-yl)bicyclo[2.2.2]octan-1-yl)methyl)-3-fluorobicyclo[1.1.1]pentane-1-carboxamide]	18
CC(F)(F)c1nc(C23CCC(CN(c4cc(F)cc(C#N)c4)C(=O)[C@H]4C[C@](O)(C(F)(F)F)C4)(CC2)CC3)no1 [Example 136, (1S,3S)-N-(3-cyano-5-fluorophenyl)-N-((4-(5-(1,1-difluoroethyl)-1,2,4-oxadiazol-3-yl)bicyclo[2.2.2]octan-1-yl)methyl)-3-hydroxy-3-(trifluoromethyl)cyclobutane-1]	256
CC(F)(F)c1nc(C23CCC(CN(C(=O)C4CC(F)(F)C4)c4cc(F)cc(C#N)c4)(CC2)CC3)no1 [Example 137, N-(3-cyano-5-fluorophenyl)-N-((4-(5-(1,1-difluoroethyl)-1,2,4-oxadiazol-3-yl)bicyclo[2.2.2]octan-1-yl)methyl)-3,3-difluorocyclobutane-1-carboxamide]	103
CC(F)(F)c1nc(C23CCC(CN(C(=O)C4CCS(=O)(=O)CC4)c4cc(F)cc(C#N)c4)(CC2)CC3)no1 [Example 138, N-(3-cyano-5-fluorophenyl)-N-((4-(5-(1,1-difluoroethyl)-1,2,4-oxadiazol-3-yl)bicyclo[2.2.2]octan-1-yl)methyl)tetrahydro-2H-thiopyran-4-carboxamide 1,1-dioxide]	4000

Results, then the compound that gave them:

EC50 [nM]	SMILES
2000	CC(C)Oc1cccc(N(CC23CCC(c4nc(C(C)(C)C)no4)(CC2)CC3)C(=O)[C@H]2C[C@](O)(C(F)(F)F)C2)c1 [Example 123, (1S,3S)—N-((4-(3-(tert-butyl)-1,2,4-oxadiazol-5-yl)bicyclo[2.2.2]octan-1-yl)methyl)-3-hydroxy-N-(3-isopropoxyphenyl)-3-(trifluoromethyl)cyclobutane-1-carboxamide]
1520	CC(C)Oc1cccc(N(CC23CCC(c4noc(C(C)(F)F)n4)(CC2)CC3)C(=O)[C@H]2C[C@@](C)(O)C2)c1 [Example 125, (1S,3S)—N-((4-(5-(1,1-difluoroethyl)-1,2,4-oxadiazol-3-yl)bicyclo[2.2.2]octan-1-yl)methyl)-3-hydroxy-N-(3-isopropoxyphenyl)-3-methylcyclobutane-1-carboxamide]
610	CC(C)Oc1cccc(N(CC23CCC(c4noc(C(C)(F)F)n4)(CC2)CC3)C(=O)[C@H]2C[C@](O)(C(F)(F)F)C2)c1 [Example 126, (1S,3S)-N-((4-(5-(1,1-difluoroethyl)-1,2,4-oxadiazol-3-yl)bicyclo[2..2.2]octan-1-yl)methyl)-3-hydroxy-N-(3-isopropoxyphenyl)-3-(trifluoromethyl)cyclobutane-1-carboxamide]
156	CC(C)Oc1cccc(N(CC23CCC(c4noc(C(C)(F)F)n4)(CC2)CC3)C(=O)C23CC(F)(C2)C3)c1 [Example 127, N-((4-(5-(1,1-difluoroethyl)-1,2,4-oxadiazol-3-yl)bicyclo[2.2.2]octan-1-yl)methyl)-3-fluoro-N-(3-isopropoxyphenyl)bicyclo[1.1.1]pentane-1-carboxamide]
73	COc1cccc(N(CC23CCC(c4noc(C(C)(F)F)n4)(CC2)CC3)C(=O)C23CC(F)(C2)C3)c1 [Example 129, N-((4-(5-(1,1-difluoroethyl)-1,2,4-oxadiazol-3-yl)bicyclo[2.2.2]octan-1-yl)methyl)-3-fluoro-N-(3-methoxyphenyl)bicyclo[1.1.1]pentane-1-carboxamide]
91	CCOc1cccc(N(CC23CCC(c4noc(C(C)(F)F)n4)(CC2)CC3)C(=O)C23CC(F)(C2)C3)c1 [Example 130, N-((4-(5-(1,1-difluoroethyl)-1,2,4-oxadiazol-3-yl)bicyclo[2.2.2]octan-1-yl)methyl)-N-(3-ethoxyphenyl)-3-fluorobicyclo[1.1.1]pentane-1-carboxamide]
228	CC(F)(F)c1nc(C23CCC(CN(C(=O)NC[C@H](F)C(C)(C)O)c4cccc(Br)c4)(CC2)CC3)no1 [Example 131, (S)-1-(3-bromophenyl)-1-((4-(5-(1,1-difluoroethyl)-1,2,4-oxadiazol-3-yl)bicyclo[2.2.2]octan-1-yl)methyl)-3-(2-fluoro-3-hydroxy-3-methylbutyl)urea]
4000	CC(C)(C)c1noc(C23CCC(CN(c4cccc(Br)c4)C(=O)[C@H]4C[C@](O)(C(F)(F)F)C4)(CC2)C3)n1 [Example 133, (1s, 3s)-N-(3-bromophenyl)-N-((4-(3-(tert-butyl)-1,2,4-oxadiazol-5-yl)bicyclo[2.2.1]heptan-1-yl)methyl)-3-hydroxy-3-(trifluoromethyl) cyclobutane-1-carboxamide]
434	CC(C)(F)c1nc(C23CCC(CN(C(=O)C45CC(C(C)(C)O)(C4)C5)c4cccc(Br)c4)(CC2)CC3)no1 [Example 134, N-(3-bromophenyl)-N-((4-(5-(2-fluoropropan-2-yl)-1,2,4-oxadiazol-3-yl)bicyclo[2.2.2]octan-1-yl)methyl)-3-(2-hydroxypropan-2-yl)bicyclo[1.1.1]pentane-1-carboxamide]
1450	NC(=O)c1nc(C23CCC(CN(c4cccc(Br)c4)C(=O)[C@H]4C[C@](O)(C(F)(F)F)C4)(CC2)CC3)no1 [Example 139, 3-(4-(((1S,3S)—N-(3-bromophenyl)-3-hydroxy-3-(trifluoromethyl)cyclobutane-1-carboxamido)methyl)bicyclo[2.2.2]octan-1-yl)-1,2,4-oxadiazole-5-carboxamide]
721	NC(=O)c1nc(C23CCC(CN(C(=O)C45CC(F)(C4)C5)c4cccc(Br)c4)(CC2)CC3)no1 [Example 140, 3-(4-((N-(3-bromophenyl)-3-fluorobicyclo[1.1.1]pentane-1-carboxamido)methyl)bicyclo[2.2.2]octan-1-yl)-1,2,4-oxadiazole-5-carboxamide]

Source: patent US12319676B2, “Substituted amide compounds useful as farnesoid X receptor modulators” (BRISTOL-MYERS SQUIBB COMPANY, priority 2019, dated 2025)
